Data on one compound can be found in patent US12023317B2, “Composition for ameliorating psoriasis comprising cimicifugolide a as active ingredient” (KOREA INSTITUTE OF SCIENCE AND TECHNOLOGY, priority 2021, dated 2024).

The assay concerns psoriasis. The experiment in a line: psoriasis-induced group: skin moisture, damaged area, skin morphology, inflammation. The assay is classed as in vivo. The note with it: when cimicifugolide A is administered.

`CC(C)=CC1OC(=O)/C(=C\CO)C1O` (stereo not shown) [cimicifugolide A, (Z)-4-Hydroxy-3-(2-hydroxyethylidene)-5-(2-methylprop-1-en-1-yl)dihydrofuran-2(3H)-one]: the inflammation expression result is reported as “inhibition”, the moisture content entry is reported as “increased”, the moisture loss entry is listed as “decreased” and the skin morphological changes entry is recorded as “inhibition”.
